The experiment has as its target T1, Prostaglandin G/H synthase 1 (Ovis aries, UniProt P05979).
T1 sequence (P05979 whole entry): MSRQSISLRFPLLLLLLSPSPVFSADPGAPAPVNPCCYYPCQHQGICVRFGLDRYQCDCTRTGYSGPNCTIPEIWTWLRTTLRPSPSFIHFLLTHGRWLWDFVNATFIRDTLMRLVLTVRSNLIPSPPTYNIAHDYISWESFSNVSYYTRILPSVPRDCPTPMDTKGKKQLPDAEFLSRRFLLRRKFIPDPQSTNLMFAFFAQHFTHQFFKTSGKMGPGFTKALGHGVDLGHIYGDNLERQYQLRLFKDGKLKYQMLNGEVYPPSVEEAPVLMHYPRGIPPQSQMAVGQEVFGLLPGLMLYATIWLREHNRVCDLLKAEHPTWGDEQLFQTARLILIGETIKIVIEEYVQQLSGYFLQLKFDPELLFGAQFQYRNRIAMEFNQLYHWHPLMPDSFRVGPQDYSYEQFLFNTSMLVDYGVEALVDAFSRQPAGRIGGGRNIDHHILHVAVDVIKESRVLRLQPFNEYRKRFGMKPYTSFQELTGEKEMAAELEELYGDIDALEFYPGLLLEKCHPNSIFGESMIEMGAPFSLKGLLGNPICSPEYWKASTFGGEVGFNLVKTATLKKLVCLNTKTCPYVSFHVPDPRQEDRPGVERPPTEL
Put plainly: In vitro inhibitory concentration against ovine Prostaglandin G/H synthase 1.

As usually defined, the pIC50 is the IC50 on a negative log10 scale, so that one unit is a factor of ten. The low end stands for a large IC50, the high end for a small IC50.

pIC50: −log10 of the molar value.

In turn, `CC/C(=C\c1ccc(C)cc1)c1ccc(S(C)(=O)=O)cc1` showed a pIC50 of 7.52.
For `CCCCCC/C(=C\c1ccccc1)c1ccc(S(C)(=O)=O)cc1`, the pIC50 was < 4.00.
On to `CCC/C(=C\c1ccccc1)c1ccc(S(C)(=O)=O)cc1`, for which the pIC50 was < 4.00.
For the compound `CC/C(=C\c1ccccc1)c1ccc(S(C)(=O)=O)cc1`, the pIC50 is < 4.00.
As for `CCCCCCC/C(=C\c1ccccc1)c1ccc(S(C)(=O)=O)cc1`, the pIC50 is < 4.00.

The values are drawn from ChEMBL document CHEMBL1137874, “A new class of acyclic 2-alkyl-1,2-diaryl (E)-olefins as selective cyclooxygenase-2 (COX-2) inhibitors” (Bioorg Med Chem Lett, 2004).
